Source: US6437006B1, “Pharmaceutical carrier formulation” (American Cyanamid Company, priority 1999, dated 2002)

## Cc1ccn(-c2ccc(C(=O)N3Cc4cccn4Cc4ccccc43)c(Cl)c2)n1 [Isomer A]
  melting point: 141 to 143 °C
